Source: ChEMBL document CHEMBL1201862, “PubChem BioAssay data set” (2004)
Calls of active or inactive are those of the source.

Experiments:
[1] = target: T1, Nuclear receptor subfamily 0 group B member 1 (Homo sapiens, UniProt P51843); assay: Luminescence-based cell-based high throughput dose response assay for inhibitors of the orphan nuclear receptor subfamily 0, group B, member 1 (DAX1; NR0B1). [Related pubchem assays (depositor defined):AID504766, AID504790]; format: functional
T1 sequence (P51843 whole entry): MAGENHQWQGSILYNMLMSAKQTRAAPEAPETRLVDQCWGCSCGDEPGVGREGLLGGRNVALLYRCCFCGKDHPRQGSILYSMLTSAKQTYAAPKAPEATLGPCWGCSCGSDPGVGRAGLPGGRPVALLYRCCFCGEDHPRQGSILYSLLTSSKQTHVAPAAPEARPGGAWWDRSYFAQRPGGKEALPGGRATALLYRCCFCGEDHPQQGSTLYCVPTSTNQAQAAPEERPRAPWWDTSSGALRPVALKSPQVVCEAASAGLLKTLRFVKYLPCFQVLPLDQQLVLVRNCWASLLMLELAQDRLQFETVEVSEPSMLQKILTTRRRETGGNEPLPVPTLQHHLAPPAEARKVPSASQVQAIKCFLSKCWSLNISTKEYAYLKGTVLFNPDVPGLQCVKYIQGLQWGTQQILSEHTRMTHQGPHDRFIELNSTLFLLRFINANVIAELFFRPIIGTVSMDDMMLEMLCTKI

HEK293 [2] = assay: cells; format: functional, cell-based; conditions: Homo sapiens
BJ [3] = assay: BJ-TERT-LT-ST fibroblast viability loss – cell-based, RAS-independent, luminescence, dose response (AID 1935); format: functional; conditions: Homo sapiens;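 also: BJ fibroblasts immortalized with TERT plus LT and ST oncogenes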
BJ [4] = assay: growth inhibition of engineered Ras-driven BJ cells – cell-based, alamar blue fluorescence, cherrypicked samples, dose response (AID 2631); format: functional; conditions: Homo sapiens;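 also: confirmatory dose-response assay in RAS-dependent BJ fibroblasts engineered with TERT, LT and ST, with cytotoxicity read by fluorescence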
[5] = DRD fibroblast viability loss – cell-based, non-viral oncogenic, luminescence, dose response (AID 1934); format: functional; conditions: Homo sapiens
BJ [6] = assay: BJ-TERT fibroblast viability loss – cell-based, RAS-independent, luminescence, dose response (AID 1933); format: functional; conditions: Homo sapiens
BJ [7] = assay: cells; format: functional, cell-based; conditions: Homo sapiens
[8] = target: Voltage-gated inwardly rectifying potassium channel KCNH2 (Homo sapiens, UniProt Q12809); conditions: Potency;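 also: confirmatory quantitative high-throughput screen measuring inhibition of hERG channel activity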
[9] = target: T2, Carboxy-terminal domain RNA polymerase II polypeptide A small phosphatase 1 (Homo sapiens, UniProt Q9GZU7); assay: CTDSP1 inhibitors, concentration-response, biochemical, absorbance readout, ultra-high-throughput screen actives (AID 540297); format: functional
T2 sequence (Q9GZU7 whole entry): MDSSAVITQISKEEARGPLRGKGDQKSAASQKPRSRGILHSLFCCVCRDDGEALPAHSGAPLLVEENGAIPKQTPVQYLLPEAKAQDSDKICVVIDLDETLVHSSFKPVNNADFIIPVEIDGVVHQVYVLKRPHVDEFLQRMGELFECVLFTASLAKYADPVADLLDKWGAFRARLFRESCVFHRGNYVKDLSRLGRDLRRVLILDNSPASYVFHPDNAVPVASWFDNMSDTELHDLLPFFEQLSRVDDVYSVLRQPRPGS

[10] = target: T3, Polyadenylate-binding protein 1 (Homo sapiens, UniProt P11940); assay: MLLE binding blockers, Cy5 peptide tracer – biochemical, fluorescence polarization, Cy5-PAM2 peptide, secondary, miRNA deadenylation inhibitor project, dose response (AID 602260); format: functional; conditions: read-out: IC50_Mean
[11] = target: Ras and Rab interactor 1/Tyrosine-protein kinase ABL1 (Homo sapiens, UniProt P00519+Q13671); format: functional;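 also: biochemical TR-FRET dose-response test measuring inhibition of binding between Rin1 and Abl proteins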
[12] = target: T3, Polyadenylate-binding protein 1; assay: MLLE domain peptide-binding blockers, IC50 – biochemical, fluorescence polarization, FITC-PAM2 peptide, dose response (AID 602259); format: functional; conditions: read-out: IC50_Mean
[13] = Luminescence Cell-Based Dose Retest to Confirm Inhibitors of Cancer Stem Cells. [Related pubchem assays (depositor defined):AID2717, AID2721]; format: functional; conditions: Homo sapiens
Vero = assay: cells; format: functional; conditions: Chlorocebus sabaeus
[14] = target: T4, Rac GTPase-activating protein 1 (Homo sapiens, UniProt Q9H0H5); assay: blockers of MgcRacGAP-driven Rac1 GTP hydrolysis – biochemical, ADP Hunter fluorescence, primary and confirmatory, confirmation (AID 624330); format: functional
T4 sequence (Q9H0H5 whole entry): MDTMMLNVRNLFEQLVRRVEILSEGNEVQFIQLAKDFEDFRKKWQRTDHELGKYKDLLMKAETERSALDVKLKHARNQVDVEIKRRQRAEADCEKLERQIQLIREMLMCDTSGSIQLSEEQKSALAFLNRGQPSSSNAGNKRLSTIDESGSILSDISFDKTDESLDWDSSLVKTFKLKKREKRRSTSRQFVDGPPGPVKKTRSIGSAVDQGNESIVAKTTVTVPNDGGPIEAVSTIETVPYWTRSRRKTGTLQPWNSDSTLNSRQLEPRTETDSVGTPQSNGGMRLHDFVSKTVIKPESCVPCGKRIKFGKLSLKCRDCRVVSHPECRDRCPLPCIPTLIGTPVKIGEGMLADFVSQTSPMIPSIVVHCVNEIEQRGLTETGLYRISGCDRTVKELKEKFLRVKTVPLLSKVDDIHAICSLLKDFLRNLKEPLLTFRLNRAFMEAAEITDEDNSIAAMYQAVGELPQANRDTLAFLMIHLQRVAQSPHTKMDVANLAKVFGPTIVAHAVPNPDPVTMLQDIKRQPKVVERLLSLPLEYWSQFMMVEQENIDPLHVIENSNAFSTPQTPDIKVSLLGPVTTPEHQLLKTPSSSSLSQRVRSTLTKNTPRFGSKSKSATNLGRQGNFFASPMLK

Albumin = Albumin (Bos taurus, UniProt P02769); assay: Counterscreen for inhibitors of T-cell receptor (TCR)-CD3 interaction: Fluorescence-based biochemical high throughput dose response assay to identify inhibitors of T-cell receptor (TCR)-CD3 interaction using a TAMRA-labeled BSA probe.; format: functional
HeLa = assay: viability loss in HeLa cells – cell-based, 24 h, cherry-picked samples, cytotoxicity control, dose response (AID 504726); format: functional; conditions: Homo sapiens;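 also: potency for cytotoxicity as loss of luminescence signal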
[15] = target: T5, Small ubiquitin-related modifier 1 (Homo sapiens, UniProt P63165); assay: SUMO1 protein interaction blockers, potency – biochemical, fluorescence polarization, uHTS hits, dose response (AID 624382); format: functional; conditions: read-out: IC50_Mean
[16] = target: T5, Small ubiquitin-related modifier 1; assay: SUMO1 protein-protein binding blockers, potency – biochemical, FRET, dose response (AID 624383); format: functional; conditions: read-out: IC50_Mean
HEK293 [17] = assay: cells; conditions: Homo sapiens
[18] = target: T6, Nucleotide-binding oligomerization domain-containing protein 1 (Homo sapiens, UniProt Q9Y239); assay: blockers of NOD1 pathway activity – revised, SAR follow-up (AID 2333); format: functional
T6 sequence (Q9Y239 whole entry): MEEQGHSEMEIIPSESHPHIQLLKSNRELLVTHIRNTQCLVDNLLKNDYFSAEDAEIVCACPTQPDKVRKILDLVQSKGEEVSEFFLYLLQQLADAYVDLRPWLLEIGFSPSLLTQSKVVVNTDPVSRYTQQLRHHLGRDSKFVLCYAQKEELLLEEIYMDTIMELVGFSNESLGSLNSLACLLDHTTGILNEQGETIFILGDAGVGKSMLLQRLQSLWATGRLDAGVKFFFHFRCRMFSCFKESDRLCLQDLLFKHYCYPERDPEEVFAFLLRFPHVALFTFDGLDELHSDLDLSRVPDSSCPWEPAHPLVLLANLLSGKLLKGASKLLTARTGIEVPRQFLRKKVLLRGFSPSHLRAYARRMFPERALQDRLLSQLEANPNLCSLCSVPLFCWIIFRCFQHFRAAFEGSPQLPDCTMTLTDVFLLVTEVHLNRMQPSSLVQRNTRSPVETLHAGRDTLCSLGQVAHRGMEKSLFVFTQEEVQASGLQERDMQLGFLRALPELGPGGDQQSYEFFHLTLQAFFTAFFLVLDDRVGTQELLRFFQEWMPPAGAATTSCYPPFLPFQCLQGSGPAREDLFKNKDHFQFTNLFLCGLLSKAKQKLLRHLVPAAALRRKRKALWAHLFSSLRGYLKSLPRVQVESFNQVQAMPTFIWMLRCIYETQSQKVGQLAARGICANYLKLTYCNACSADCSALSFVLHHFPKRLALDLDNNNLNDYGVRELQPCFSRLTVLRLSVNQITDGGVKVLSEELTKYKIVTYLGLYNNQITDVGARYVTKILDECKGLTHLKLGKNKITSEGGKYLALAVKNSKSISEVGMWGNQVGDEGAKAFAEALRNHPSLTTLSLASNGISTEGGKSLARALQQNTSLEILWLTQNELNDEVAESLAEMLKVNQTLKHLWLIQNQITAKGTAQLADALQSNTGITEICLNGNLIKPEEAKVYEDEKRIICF

Tumor necrosis factor = Tumor necrosis factor (Homo sapiens, UniProt P01375); assay: analog potency on TNFa NF-kB signaling – cell-based, revised, SAR follow-up (AID 2337); format: functional
Aurora kinase A = target: T7, Aurora kinase A (Homo sapiens, UniProt O14965); format: functional;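 also: value from the Navigating the Kinome kinase panel profiling, panel entry STK6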
T7 sequence (O14965 whole entry): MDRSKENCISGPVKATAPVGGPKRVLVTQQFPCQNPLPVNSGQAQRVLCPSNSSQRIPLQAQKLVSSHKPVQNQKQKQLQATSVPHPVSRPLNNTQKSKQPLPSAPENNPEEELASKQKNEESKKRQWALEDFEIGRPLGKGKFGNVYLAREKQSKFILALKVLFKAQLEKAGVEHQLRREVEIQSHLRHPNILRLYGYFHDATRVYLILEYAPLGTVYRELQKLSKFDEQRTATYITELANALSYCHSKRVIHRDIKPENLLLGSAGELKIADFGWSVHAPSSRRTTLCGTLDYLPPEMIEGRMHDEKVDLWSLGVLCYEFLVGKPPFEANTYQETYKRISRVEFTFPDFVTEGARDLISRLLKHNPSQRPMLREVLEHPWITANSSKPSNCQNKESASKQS

Aurora kinase B = Aurora kinase B (Homo sapiens, UniProt Q96GD4); format: functional
[19] = target: Vascular endothelial growth factor receptor 2 (Homo sapiens, UniProt P35968); format: functional
H9c2 = assay: cells; format: functional, cell-based; conditions: Rattus norvegicus, H9c2, Myocardium;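 also: confirmatory concentration-response retest of ultra-high-throughput screening hits for modulation of myocardial damage; cell death induced by hydrogen peroxide oxidative stress; compound pretreatment for 60 min then peroxide exposure for 2 h; potency is for protecting the cells against peroxide damage rather than for killing them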

Tumor necrosis factor, sequence (P01375 whole entry): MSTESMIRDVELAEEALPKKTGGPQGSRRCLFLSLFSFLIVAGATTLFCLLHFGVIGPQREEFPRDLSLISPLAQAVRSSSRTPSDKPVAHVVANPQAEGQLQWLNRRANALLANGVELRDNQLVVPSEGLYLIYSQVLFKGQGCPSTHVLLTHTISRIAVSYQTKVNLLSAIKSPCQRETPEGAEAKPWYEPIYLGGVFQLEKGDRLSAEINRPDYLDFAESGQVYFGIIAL
T3 sequence (P11940 whole entry): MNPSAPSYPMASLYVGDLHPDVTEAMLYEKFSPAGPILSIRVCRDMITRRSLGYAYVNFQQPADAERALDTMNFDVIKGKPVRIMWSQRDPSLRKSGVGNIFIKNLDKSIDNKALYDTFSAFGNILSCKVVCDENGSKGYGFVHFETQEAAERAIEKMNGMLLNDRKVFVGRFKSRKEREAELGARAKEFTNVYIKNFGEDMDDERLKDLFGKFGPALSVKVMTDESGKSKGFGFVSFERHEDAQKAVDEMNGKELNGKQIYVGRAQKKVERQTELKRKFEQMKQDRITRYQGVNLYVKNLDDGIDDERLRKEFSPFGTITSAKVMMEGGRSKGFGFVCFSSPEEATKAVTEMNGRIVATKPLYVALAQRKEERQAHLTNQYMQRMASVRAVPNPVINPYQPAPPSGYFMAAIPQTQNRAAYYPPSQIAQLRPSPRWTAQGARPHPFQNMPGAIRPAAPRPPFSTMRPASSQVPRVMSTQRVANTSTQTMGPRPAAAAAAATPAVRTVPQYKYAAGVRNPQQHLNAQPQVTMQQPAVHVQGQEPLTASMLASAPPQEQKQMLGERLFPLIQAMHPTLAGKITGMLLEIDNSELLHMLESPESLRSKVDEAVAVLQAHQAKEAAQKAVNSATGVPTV
Ras and Rab interactor 1/Tyrosine-protein kinase ABL1, sequence (P00519 whole entry, the tested form may be a part): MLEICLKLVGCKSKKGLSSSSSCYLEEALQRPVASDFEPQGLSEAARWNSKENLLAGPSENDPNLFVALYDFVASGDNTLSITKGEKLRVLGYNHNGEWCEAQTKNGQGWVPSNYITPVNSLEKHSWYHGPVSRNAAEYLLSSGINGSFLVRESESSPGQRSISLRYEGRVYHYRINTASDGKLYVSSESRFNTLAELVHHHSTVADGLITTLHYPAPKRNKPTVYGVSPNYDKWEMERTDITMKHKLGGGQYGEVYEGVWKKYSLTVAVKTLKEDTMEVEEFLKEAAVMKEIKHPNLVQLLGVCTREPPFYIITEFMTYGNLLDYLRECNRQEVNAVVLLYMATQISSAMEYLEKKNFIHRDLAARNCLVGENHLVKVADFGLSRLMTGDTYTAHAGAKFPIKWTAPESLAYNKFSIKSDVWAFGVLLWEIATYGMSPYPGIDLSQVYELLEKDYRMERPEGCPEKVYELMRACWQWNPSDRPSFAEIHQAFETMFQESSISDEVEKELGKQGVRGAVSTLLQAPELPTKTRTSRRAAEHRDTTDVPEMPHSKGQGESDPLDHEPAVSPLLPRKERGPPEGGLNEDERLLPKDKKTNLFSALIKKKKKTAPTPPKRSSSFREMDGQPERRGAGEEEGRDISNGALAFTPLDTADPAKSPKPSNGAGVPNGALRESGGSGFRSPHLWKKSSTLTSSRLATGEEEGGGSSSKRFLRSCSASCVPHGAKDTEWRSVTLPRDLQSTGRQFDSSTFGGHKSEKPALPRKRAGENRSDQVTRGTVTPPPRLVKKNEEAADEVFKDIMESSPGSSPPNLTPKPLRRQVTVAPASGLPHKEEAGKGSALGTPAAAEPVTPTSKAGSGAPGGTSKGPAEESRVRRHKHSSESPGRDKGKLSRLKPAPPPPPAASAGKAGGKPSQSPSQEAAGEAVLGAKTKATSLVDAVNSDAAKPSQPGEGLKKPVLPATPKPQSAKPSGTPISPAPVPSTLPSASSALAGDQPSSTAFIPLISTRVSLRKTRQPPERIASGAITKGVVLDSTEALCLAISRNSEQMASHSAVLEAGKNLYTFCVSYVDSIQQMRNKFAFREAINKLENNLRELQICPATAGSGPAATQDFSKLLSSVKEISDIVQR
Ras and Rab interactor 1/Tyrosine-protein kinase ABL1, sequence (Q13671 whole entry, the tested form may be a part): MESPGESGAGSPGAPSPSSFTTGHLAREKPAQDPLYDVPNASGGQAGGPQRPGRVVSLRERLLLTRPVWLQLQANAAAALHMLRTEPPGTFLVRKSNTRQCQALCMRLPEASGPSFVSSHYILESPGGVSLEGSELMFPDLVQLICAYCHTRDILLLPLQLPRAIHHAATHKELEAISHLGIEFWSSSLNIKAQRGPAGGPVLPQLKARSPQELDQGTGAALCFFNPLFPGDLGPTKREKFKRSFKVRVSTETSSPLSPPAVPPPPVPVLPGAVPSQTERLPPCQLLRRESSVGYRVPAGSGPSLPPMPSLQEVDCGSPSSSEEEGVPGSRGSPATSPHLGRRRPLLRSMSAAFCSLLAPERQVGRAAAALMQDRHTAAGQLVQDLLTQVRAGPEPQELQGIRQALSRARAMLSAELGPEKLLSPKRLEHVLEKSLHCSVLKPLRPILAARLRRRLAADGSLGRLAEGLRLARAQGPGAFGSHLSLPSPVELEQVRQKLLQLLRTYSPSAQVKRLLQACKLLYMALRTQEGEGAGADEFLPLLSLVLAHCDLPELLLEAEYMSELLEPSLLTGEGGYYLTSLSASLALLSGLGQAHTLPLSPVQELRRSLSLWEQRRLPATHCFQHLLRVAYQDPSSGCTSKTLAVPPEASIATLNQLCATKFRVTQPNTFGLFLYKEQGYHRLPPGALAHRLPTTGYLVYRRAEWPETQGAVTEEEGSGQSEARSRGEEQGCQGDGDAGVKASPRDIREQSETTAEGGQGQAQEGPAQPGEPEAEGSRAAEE
T5 sequence (P63165 whole entry): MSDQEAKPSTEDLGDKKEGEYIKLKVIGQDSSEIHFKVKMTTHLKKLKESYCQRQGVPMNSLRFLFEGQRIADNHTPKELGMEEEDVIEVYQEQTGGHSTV
Aurora kinase B, sequence (Q96GD4 whole entry): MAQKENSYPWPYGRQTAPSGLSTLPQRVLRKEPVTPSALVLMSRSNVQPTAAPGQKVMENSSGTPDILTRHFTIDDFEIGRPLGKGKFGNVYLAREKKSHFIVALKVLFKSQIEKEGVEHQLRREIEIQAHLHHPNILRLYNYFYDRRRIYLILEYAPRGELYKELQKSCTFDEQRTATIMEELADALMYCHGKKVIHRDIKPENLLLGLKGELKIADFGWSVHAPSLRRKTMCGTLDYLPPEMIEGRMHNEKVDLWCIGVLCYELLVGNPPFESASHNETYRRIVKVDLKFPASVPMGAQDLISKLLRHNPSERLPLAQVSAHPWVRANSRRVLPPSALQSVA
Albumin, sequence (P02769 whole entry): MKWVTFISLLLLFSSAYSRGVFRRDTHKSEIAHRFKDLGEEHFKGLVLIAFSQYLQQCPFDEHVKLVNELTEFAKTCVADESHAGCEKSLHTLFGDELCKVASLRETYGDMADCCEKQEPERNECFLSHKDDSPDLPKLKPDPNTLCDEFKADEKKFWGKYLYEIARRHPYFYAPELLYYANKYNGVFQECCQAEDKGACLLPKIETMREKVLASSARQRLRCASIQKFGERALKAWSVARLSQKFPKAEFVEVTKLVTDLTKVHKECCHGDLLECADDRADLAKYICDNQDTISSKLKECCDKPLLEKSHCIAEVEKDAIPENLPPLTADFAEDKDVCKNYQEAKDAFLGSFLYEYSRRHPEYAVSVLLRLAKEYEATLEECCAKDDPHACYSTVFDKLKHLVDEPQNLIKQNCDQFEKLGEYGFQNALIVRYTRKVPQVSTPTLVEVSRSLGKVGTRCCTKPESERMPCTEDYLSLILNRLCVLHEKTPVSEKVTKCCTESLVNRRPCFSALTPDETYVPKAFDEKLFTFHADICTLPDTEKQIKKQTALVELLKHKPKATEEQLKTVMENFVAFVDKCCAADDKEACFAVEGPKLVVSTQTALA
Voltage-gated inwardly rectifying potassium channel KCNH2, sequence (Q12809 whole entry, the tested form may be a part): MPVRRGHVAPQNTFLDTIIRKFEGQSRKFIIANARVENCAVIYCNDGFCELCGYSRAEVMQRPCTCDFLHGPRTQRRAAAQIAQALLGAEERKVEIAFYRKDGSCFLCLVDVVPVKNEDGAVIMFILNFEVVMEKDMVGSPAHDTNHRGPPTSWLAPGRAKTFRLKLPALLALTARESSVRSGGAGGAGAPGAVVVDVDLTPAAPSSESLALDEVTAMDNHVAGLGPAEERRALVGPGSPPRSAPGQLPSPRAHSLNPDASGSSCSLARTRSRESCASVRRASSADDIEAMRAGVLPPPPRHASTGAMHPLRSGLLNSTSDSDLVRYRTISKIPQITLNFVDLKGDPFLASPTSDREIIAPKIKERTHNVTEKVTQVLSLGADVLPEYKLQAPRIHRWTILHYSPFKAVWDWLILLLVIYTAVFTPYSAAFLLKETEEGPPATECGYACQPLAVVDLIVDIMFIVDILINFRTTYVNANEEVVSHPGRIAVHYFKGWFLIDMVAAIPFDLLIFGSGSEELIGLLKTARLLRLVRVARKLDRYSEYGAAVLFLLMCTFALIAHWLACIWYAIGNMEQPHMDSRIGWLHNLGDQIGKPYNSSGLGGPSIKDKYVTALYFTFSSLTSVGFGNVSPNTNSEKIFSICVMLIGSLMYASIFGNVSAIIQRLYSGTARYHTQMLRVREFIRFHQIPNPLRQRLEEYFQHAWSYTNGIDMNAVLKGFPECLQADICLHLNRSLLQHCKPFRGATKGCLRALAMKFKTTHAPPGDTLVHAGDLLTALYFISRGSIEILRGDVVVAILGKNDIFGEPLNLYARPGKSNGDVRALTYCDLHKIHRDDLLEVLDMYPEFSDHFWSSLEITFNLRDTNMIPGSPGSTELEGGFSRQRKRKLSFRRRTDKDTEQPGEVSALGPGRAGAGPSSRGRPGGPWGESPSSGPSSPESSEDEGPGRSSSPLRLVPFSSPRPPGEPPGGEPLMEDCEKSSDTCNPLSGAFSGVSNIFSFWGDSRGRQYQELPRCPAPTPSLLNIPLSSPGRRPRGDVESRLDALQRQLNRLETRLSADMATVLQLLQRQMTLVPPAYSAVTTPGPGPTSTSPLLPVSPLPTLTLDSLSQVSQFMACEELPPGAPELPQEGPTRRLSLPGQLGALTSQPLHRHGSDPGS

Compound: O=C(NNc1nc2c(F)cccc2s1)c1ccccc1
- IC50 [1]: > 67.5 µM (inactive)
- IC50 (HEK293 [2]): > 67.5 µM (inactive)

Compound: CN1C/C(=C/c2ccncc2)C(=O)/C(=C/c2ccncc2)C1
- EC50 (BJ [3]): 5.85 µM (inconclusive)
- EC50 (BJ [4]): 0.455 µM (active)
- EC50 [5]: 7.52 µM (active)
- EC50 (BJ [6]): 3.82 µM (active)
- EC50 (BJ [7]): 3.65 µM (inconclusive)

Compound: Cc1c(C(=O)OCC(=O)N2CC(=O)Nc3ccccc32)oc2ccc(Br)cc12
- EC50 (BJ [3]): > 150 µM (inconclusive)
- EC50 (BJ [4]): > 133 µM (inactive)
- EC50 [5]: 15.6 µM (active)
- EC50 (BJ [6]): 10.1 µM (active)
- EC50 (BJ [7]): 35.9 µM (active)

Compound: CCCCOC(=O)c1ccccc1C(=O)OCc1ccccc1
- AC50 [8]: 25.1 µM (inconclusive)

Compound: N#Cc1c(SCC(=O)Nc2cccc(F)c2)sc2c(O)cc(=O)[nH]c12
- IC50 [9]: 7.26 µM (active)

Compound: CCOC(=O)CCCCC(=O)c1[nH]c(O)nc1CSc1nc(O)c(C#N)c(-c2ccccc2)n1
- IC50 [10]: > 66 µM (inactive)
- IC50 [11]: 1.45 µM (active)
- IC50 [12]: > 66 µM (inactive)

Compound: O=C(Nc1ccc(Cl)cc1)c1cc2c(cc1O)[nH]c1ccccc12
- AC50 [13]: 0.198 µM (active)
- CC50 (Vero): 10.9 µM (active)

Compound: O=C(OCc1cc(=O)n2c(n1)sc1ccccc12)c1ccc(O)cc1
- IC50 [9]: 5.75 µM (active)

Compound: CCOC(=O)CCCCC(=O)c1[nH]c(O)nc1Cn1cnc2ccccc21
- IC50 [11]: 1.86 µM (active)

Compound: COc1ccc(C(=O)N[C@H](C(=O)NCCCSc2ccccc2)C(C)C)cc1
- IC50 [1]: > 67.5 µM (inactive)
- IC50 (HEK293 [2]): > 67.5 µM (inactive)

Compound: CCOc1ccc(Nc2ccc(N)c(S(=O)(=O)O)c2)cc1
- IC50 [14]: 68.9 µM (active)
- IC50 (Albumin): > 94.1 µM (inactive)
- AC50 (HeLa): 299 µM (active)
- IC50 [15]: > 66.6 µM (inactive)
- IC50 [9]: 3.21 µM (active)
- IC50 [16]: 11.7 µM (active)

Compound: CCOc1ccc(NC(=O)c2ccc(CCN3CCc4ccccc4C3)cc2)cc1
- IC50 (HEK293 [17]): > 20 µM (inactive)
- IC50 [18]: > 20 µM (inactive)
- IC50 (Tumor necrosis factor): > 20 µM (inactive)

Compound: CN(C)c1ccc(NC(=O)c2ccc(CN3CCc4ccccc4C3)cc2)cc1
- IC50 (HEK293 [17]): > 20 µM (inactive)
- IC50 [18]: 1.61 µM (active)
- IC50 (Tumor necrosis factor): 1.83 µM (active)

Compound: O=C1Nc2ccccc2Nc2cc(-c3ccccc3O)ccc21
- Ki (Aurora kinase A): > 2 µM (inactive)
- Ki (Aurora kinase B): > 2.51 µM (inactive)
- Ki [19]: 0.0794 µM (active)

Compound: Cc1[nH]c2ccccc2c1/C=N/NC(=O)c1cccs1
- IC50 [1]: > 67.6 µM (inactive)
- IC50 (HEK293 [2]): > 67.6 µM (inactive)
- IC50 (H9c2): > 79 µM (inactive)
